Key:
Test in all cases: Kinase inhibitor library screening, PrestoBlue cell viability, 1 or 10 μM, 72 h
501Mel cells (parental) = conditions: 72 h; for cell viability (kinase inhibitor library screening): 501Mel Parental; for viability at 1 µM / viability at 10 µM: Homo sapiens; for viability at 1 µM: read-out: cell viability, 501Mel Parental, 1μΜ; for viability at 10 µM: read-out: cell viability, 501Mel Parental, 10μΜ
Protocol: (§1) After 72 h of treatment, cell viability was assessed using the PrestoBlue Cell Viability Reagent (ThermoFisher Scientific). Measurements were performed with the CLARIOstar Monochromator microplate reader (BMG Labtech).
(§2) Kinase inhibitor library screening. […] Each cell line was treated in its sensitive form (parental), and also as 2 resistant derivatives, which were made resistant to either Vemurafenib (XP) or Dabrafenib (GP). Drugs were added at 2 different concentrations, 1 and 10 μM, for 72 h and cell viability was assessed using the PrestoBlue Cell Viability assay. Results are depicted as % viability compared to untreated cells. Each cell line was analyzed at least in duplicate. […] (XLSX 95 kb)

IGR37 cells (parental) = conditions: for cell viability (kinase inhibitor library screening): IGR37 Parental, 72 h; for viability at 1 µM / viability at 10 µM: Homo sapiens, IGR-37, 72 h; for viability at 1 µM: read-out: cell viability, IGR37 Parental, 1μΜ; for viability at 10 µM: read-out: cell viability, IGR37 Parental, 10μΜ
Protocol: as §1, §2

A375 cells (parental) = conditions: for cell viability (kinase inhibitor library screening): A375 Parental, 72 h; for viability at 1 µM / viability at 10 µM: Homo sapiens, A-375, 72 h; for viability at 1 µM: read-out: cell viability, A375 Parental, 1μΜ; for viability at 10 µM: read-out: cell viability, A375 Parental, 10μΜ
Protocol: as §1, §2

[1] = test system: IGR37-XP cells (Vemurafenib-resistant); conditions: for cell viability (kinase inhibitor library screening): IGR37 XP, 72 h; for viability at 1 µM / viability at 10 µM: Homo sapiens, IGR-37, 72 h; for viability at 1 µM: read-out: cell viability, IGR37 XP, 1μΜ; for viability at 10 µM: read-out: cell viability, IGR37 XP, 10μΜ
Protocol: as §1, §2

[2] = test system: A375-XP cells (Vemurafenib-resistant); conditions: for cell viability (kinase inhibitor library screening): A375 XP, 72 h; for viability at 1 µM / viability at 10 µM: Homo sapiens, A-375, 72 h; for viability at 1 µM: read-out: cell viability, A375 XP, 1μΜ; for viability at 10 µM: read-out: cell viability, A375 XP, 10μΜ
Protocol: as §1, §2

[3] = test system: A375-GP cells (Dabrafenib-resistant); conditions: for cell viability (kinase inhibitor library screening): A375 GP, 72 h; for viability at 1 µM / viability at 10 µM: Homo sapiens, A-375, 72 h; for viability at 1 µM: read-out: cell viability, A375 GP, 1μΜ; for viability at 10 µM: read-out: cell viability, A375 GP, 10μΜ
Protocol: as §1, §2

[4] = test system: IGR37-GP cells (Dabrafenib-resistant); conditions: for cell viability (kinase inhibitor library screening): IGR37 GP, 72 h; for viability at 1 µM / viability at 10 µM: Homo sapiens, IGR-37, 72 h; for viability at 1 µM: read-out: cell viability, IGR37 GP, 1μΜ; for viability at 10 µM: read-out: cell viability, IGR37 GP, 10μΜ
Protocol: as §1, §2

[5] = test system: 501Mel-GP cells (Dabrafenib-resistant); conditions: 72 h; for cell viability (kinase inhibitor library screening): 501Mel GP; for viability at 1 µM / viability at 10 µM: Homo sapiens; for viability at 1 µM: read-out: cell viability, 501Mel GP, 1μΜ; for viability at 10 µM: read-out: cell viability, 501Mel GP, 10μΜ
Protocol: as §1, §2

[6] = test system: 501Mel-XP cells (Vemurafenib-resistant); conditions: 72 h; for cell viability (kinase inhibitor library screening): 501Mel XP; for viability at 1 µM / viability at 10 µM: Homo sapiens; for viability at 1 µM: read-out: cell viability, 501Mel XP, 1μΜ; for viability at 10 µM: read-out: cell viability, 501Mel XP, 10μΜ
Protocol: as §1, §2

| SMILES | cell viability (kinase inhibitor library screening) (501Mel cells (parental); 1μΜ) | cell viability (kinase inhibitor library screening) (501Mel cells (parental); 10μΜ) | cell viability (kinase inhibitor library screening) (IGR37 cells (parental); 1μΜ) | cell viability (kinase inhibitor library screening) (IGR37 cells (parental); 10μΜ) | cell viability (kinase inhibitor library screening) (A375 cells (parental); 10μΜ) | cell viability (kinase inhibitor library screening) (A375 cells (parental); 1μΜ) | cell viability (kinase inhibitor library screening) ([1]; 1μΜ) | cell viability (kinase inhibitor library screening) ([1]; 10μΜ) | cell viability (kinase inhibitor library screening) ([2]; 1μΜ) | cell viability (kinase inhibitor library screening) ([2]; 10μΜ) | cell viability (kinase inhibitor library screening) ([3]; 1μΜ) | cell viability (kinase inhibitor library screening) ([3]; 10μΜ) | cell viability (kinase inhibitor library screening) ([4]; 10μΜ) | cell viability (kinase inhibitor library screening) ([5]; 1μΜ) | cell viability (kinase inhibitor library screening) ([5]; 10μΜ) | cell viability (kinase inhibitor library screening) ([6]; 1μΜ) | cell viability (kinase inhibitor library screening) ([6]; 10μΜ) | viability at 1 µM (501Mel cells (parental)) | viability at 10 µM (501Mel cells (parental)) | viability at 1 µM (IGR37 cells (parental)) | further results |
| --- | --- | --- | --- | --- | --- | --- | --- | --- | --- | --- | --- | --- | --- | --- | --- | --- | --- | --- | --- | --- | --- |
| Cc1csc(-c2nnc(Nc3ccc(Oc4ncccc4-c4ccnc(N)n4)cc3)c3ccccc23)c1 [AMG 900] | 87.5% | 70.0% | 94.6% | 78.1% | 30.4% | 46.4% | 100.0% | 66.5% | 52.6% | 47.5% | 44.4% | 34.7% | 79.9% | 90.4% | 60.6% | 77.2% | 59.1% |  |  |  |  |
| O=C1NC(=O)[C@@H](c2cn3c4c(cccc24)CCC3)[C@@H]1c1c[nH]c2ccccc12 [ARQ 197 (Tivantinib)] | 52.2% | 26.1% | 79.8% | 16.2% | 29.2% | 26.4% | 69.4% | 43.0% | 34.5% | 24.5% | 30.6% | 32.9% | 73.0% | 40.8% | 25.6% | 25.8% | 10.6% |  |  |  | cell viability (kinase inhibitor library screening) ([4]; 1μΜ): 85.1% |
| C[C@@H]1COC(Nc2ccc3ncnc(Nc4ccc(OCc5nccs5)c(Cl)c4)c3c2)=N1 [ARRY334543] |  |  |  |  |  |  |  |  |  |  |  |  |  |  |  |  |  | 97.9% | 87.3% | 102% | viability at 10 µM (IGR37 cells (parental)): 85.9%; viability at 1 µM (A375 cells (parental)): 103%; viability at 10 µM (A375 cells (parental)): 89.3%; viability at 1 µM [1]: 71.6%; viability at 10 µM [1]: 11.7%; viability at 1 µM [2]: 107%; viability at 10 µM [2]: 85.8%; viability at 1 µM [3]: 101%; viability at 10 µM [3]: 83.2%; viability at 1 µM [4]: 89.4%; viability at 10 µM [4]: 33%; viability at 1 µM [5]: 101%; viability at 10 µM [5]: 86.4%; viability at 1 µM [6]: 118%; viability at 10 µM [6]: 57.2% |
| O=C(NC[C@H](O)CO)c1ccncc1Nc1ccc(I)cc1F [AS703026] |  |  |  |  |  |  |  |  |  |  |  |  |  |  |  |  |  | 50.1% | 57.6% | 33.3% | viability at 10 µM (IGR37 cells (parental)): 35.4%; viability at 1 µM (A375 cells (parental)): 18.5%; viability at 10 µM (A375 cells (parental)): 19.6%; viability at 1 µM [1]: 52.7%; viability at 10 µM [1]: 18.8%; viability at 1 µM [2]: 15.5%; viability at 10 µM [2]: 9.6%; viability at 1 µM [3]: 18.8%; viability at 10 µM [3]: 15.8%; viability at 1 µM [4]: 77%; viability at 10 µM [4]: 59.4%; viability at 1 µM [5]: 95.8%; viability at 10 µM [5]: 78.7%; viability at 1 µM [6]: 79.8%; viability at 10 µM [6]: 56% |

Source: paper PMC6364417, “Kinase inhibitor library screening identifies synergistic drug combinations effective in sensitive and resistant melanoma cells” (Journal of Experimental & Clinical Cancer Research : CR, 2019)
